Data reported in publication PMC10447463, “Data-mining unveils structure–property–activity correlation of viral infectivity enhancing self-assembling peptides” (Nature Communications, 2023).

System: TZM-bl cells
Assay type: cell-based
Conditions: CellTiter-Glo, mean of n = 3 replicates
Procedure: The cell viability after addition of peptides to TZM–bl cells was studied via the CellTiter–Glo assay. To this end, 10,000 cells were seeded and on the next day serial diluted peptides were added. After 3 days the supernatant was removed and 100 µL CellTiter–Glo Reagent 1:1 diluted in PBS was added. After 10 min 50 µL was transferred to white microplate and luminescence was recorded by Orion microplate luminometer.
2. Cell Viability of Representatively Selected Peptides
Figure S 2 Cell Viability normalized to 100% metabolic activity as determined by CellTiterGlo Assay of 57 representatively selected peptides from the library. The selection represents infectivity enhancing and not […]
concentration. Error bars indicate standard deviation from triplicate measurements. Source data for Figure S2 […]
Figure S3 Cell Viability normalized to 100% metabolic activity determined by CellTiterGlo Assay of 20 peptides reported in literature. 33,34,43–48,35–42 Cell viability (> 80%) is maintained for all peptides at 1.3 µM concentration regardless of the preparation method, which is A PNF formation method by dilution of 10 mg/mL peptide stock in DMSO in PBS to 1 mg/mL or B preparation according to literature reported protocol (SI Section 8). Error bars indicate standard deviation from triplicate measurements. Source data for Figure S3 is provided.

HHHHKIKIKIKIWWWW [TM4]
viability 0.26 µM (peptide 0.26 µM): 89.63 | viability 1.3 µM (peptide 1.3 µM): 83.12 | viability 6.5 µM (peptide 6.5 µM): 68.76
